Test results reported in PubChem BioAssay (NCI).
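Compound exposure: 48 hours, 5 concentrations, 96-well plates. TGI: total growth inhibition.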

Legend:
Test in all cases: DTP human tumour cell line panel, 48 h
[1] = system: 786-0 renal
[2] = system: A498 renal
[3] = system: A549 NSCLC
[4] = system: ACHN renal
[5] = system: BT-549 breast
[6] = system: CAKI-1 renal
[7] = system: CCRF-CEM leukemia
[8] = system: COLO 205 colon
[9] = system: DU-145 prostate
[10] = system: EKVX NSCLC
[11] = system: HCC-2998 colon
[12] = system: HCT-116 colon
[13] = system: HCT-15 colon
[14] = system: HL-60(TB) leukemia
[15] = system: HOP-62 NSCLC
[16] = system: HOP-92 NSCLC
[17] = system: HS 578T breast
[18] = system: HT29 colon
[19] = system: IGROV1 ovarian
[20] = system: K-562 leukemia
[21] = system: KM12 colon
[22] = system: LOX IMVI melanoma
[23] = system: M14 melanoma
[24] = system: MALME-3M melanoma
[25] = system: MCF7 breast
[26] = system: MDA-MB-231 breast
[27] = system: MDA-MB-435
[28] = system: MDA-N
[29] = system: MOLT-4 leukemia
[30] = system: NCI-H226 lung
[31] = system: NCI-H23 lung
[32] = system: NCI-H460 lung
[33] = system: NCI-H522 lung
[34] = system: NCI/ADR-RES ovarian
[35] = system: OVCAR-3 ovarian
[36] = system: OVCAR-4 ovarian
[37] = system: OVCAR-5 ovarian
[38] = system: OVCAR-8 ovarian
[39] = system: PC-3 prostate
[40] = system: RPMI-8226 leukemia
[41] = system: RXF 393 renal
[42] = system: SF-268 CNS
[43] = system: SF-295 CNS
[44] = system: SF-539 CNS
[45] = system: SK-MEL-2 melanoma
[46] = system: SK-MEL-28 melanoma
[47] = system: SK-MEL-5 melanoma
[48] = system: SK-OV-3 ovarian
[49] = system: SN12C renal
[50] = system: SNB-19 CNS
[51] = system: SR leukemia
[52] = system: SW-620 colon
[53] = system: T-47D breast
[54] = system: TK-10 renal
[55] = system: U251 CNS
[56] = system: UACC-257 melanoma
[57] = system: UACC-62 melanoma
[58] = system: UO-31 renal
[59] = system: SNB-75 CNS

Measured: TGI

Nc1nc(-c2cc(-c3cccc4ccccc34)nc(N)n2)cc(-c2cccc3ccccc23)n1
> 100 µM: [1] | [2] | [3] | [4] | [5] | [6] | [7] | [8] | [9] | [10] | [11] | [12] | [13] | [14] | [15] | [16] | [17] | [18] | [19] | [20] | [21] | [22] | [23] | [24] | [25] | [26] | [27] | [28] | [29] | [30] | [31] | [32] | [33] | [34] | [35] | [36] | [37] | [38] | [39] | [40] | [41] | [42] | [43] | [44] | [45] | [46] | [47] | [48] | [49] | [50] | [51] | [52] | [53] | [54] | [55] | [56] | [57] | [58]

Cc1nc2cccc([N+](=O)[O-])c2n1CCCN(C)C
> 100 µM: [1] | [2] | [3] | [4] | [5] | [6] | [7] | [8] | [9] | [10] | [11] | [12] | [13] | [14] | [15] | [17] | [18] | [19] | [20] | [21] | [22] | [23] | [24] | [25] | [26] | [27] | [28] | [30] | [31] | [32] | [33] | [34] | [35] | [36] | [37] | [38] | [39] | [40] | [41] | [42] | [43] | [45] | [46] | [47] | [48] | [49] | [50] | [59] | [51] | [52] | [53] | [54] | [55] | [56] | [57] | [58]
